# ChEMBL document CHEMBL4265965, “Dichloroacetophenones targeting at pyruvate dehydrogenase kinase 1 with improved selectivity and antiproliferative activity: Synthesis and structure-activity relationships” (Bioorg Med Chem Lett, 2018)
# Activity calls are given as the source filed them. The calls are words filed in the database; no cut-off is given here.
# What was measured:
# [1] = biological target: [Pyruvate dehydrogenase (acetyl-transferring)] kinase isozyme 1, mitochondrial (Homo sapiens, UniProt Q15118); assay: Inhibition of recombinant human N-terminal His6/Sumo-tagged PDK1 (29 to 436 residues) expressed in Escherichia coli BL21 at 1 uM by kinase-glo luminescence assay relative to control
# [2] = test system: NCI-H1650; assay: Antiproliferative activity against human NCI-H1650 cells assessed as inhibition of cell proliferation at 2 uM after 72 hrs by MTT assay relative to control; type: functional; conditions: for inhibition at 2 µM: NCI-H1650, 72 h
# [3] = test system: A549; assay: Antiproliferative activity against human A549 cells assessed as inhibition of cell proliferation at 12 uM after 72 hrs by MTT assay relative to control; type: functional; conditions: for inhibition at 12 µM: A549, 72 h
# [4] = test system: NCI-H1975; assay: Antiproliferative activity against human NCI-H1975 cells assessed as inhibition of cell proliferation at 12 uM after 72 hrs by MTT assay relative to control; type: functional; conditions: for inhibition at 12 µM: NCI-H1975, 72 h
# [5] = test system: NCI-H1650; assay: Antiproliferative activity against human NCI-H1650 cells assessed as inhibition of cell proliferation at 6 uM after 72 hrs by MTT assay relative to control; type: functional; conditions: for inhibition at 6 µM: NCI-H1650, 72 h
# [6] = species: Sus scrofa; assay: Inhibition of porcine PDK1 assessed as activation of pyruvate dehydrogenase complex at 1 uM measured after 3 mins
# [7] = test system: A549; assay: Antiproliferative activity against human A549 cells assessed as inhibition of cell proliferation at 2 uM after 72 hrs by MTT assay relative to control; type: functional; conditions: for inhibition at 2 µM: A549, 72 h
# [8] = test system: NCI-H1975; assay: Antiproliferative activity against human NCI-H1975 cells assessed as inhibition of cell proliferation at 6 uM after 72 hrs by MTT assay relative to control; type: functional; conditions: for inhibition at 6 µM: NCI-H1975, 72 h
# [9] = test system: A549; assay: Antiproliferative activity against human A549 cells assessed as inhibition of cell proliferation at 6 uM after 72 hrs by MTT assay relative to control; type: functional; conditions: for inhibition at 6 µM: A549, 72 h
# [10] = test system: NCI-H1650; assay: Antiproliferative activity against human NCI-H1650 cells assessed as inhibition of cell proliferation at 12 uM after 72 hrs by MTT assay relative to control; type: functional; conditions: for inhibition at 12 µM: NCI-H1650, 72 h
# [11] = test system: NCI-H1975; assay: Antiproliferative activity against human NCI-H1975 cells assessed as inhibition of cell proliferation at 2 uM after 72 hrs by MTT assay relative to control; type: functional; conditions: for inhibition at 2 µM: NCI-H1975, 72 h
SMILES,inhibition [1],inhibition at 2 µM [2] [%],inhibition at 12 µM [3] [%],inhibition at 12 µM [4] [%],inhibition at 6 µM [5] [%],inhibition [6],inhibition at 2 µM [7] [%],inhibition at 6 µM [8] [%],inhibition at 6 µM [9] [%],inhibition at 12 µM [10] [%],inhibition at 2 µM [11] [%],inhibition [2],inhibition [7],inhibition [11],inhibition [3],inhibition [9],inhibition [4],inhibition [5],inhibition [8],inhibition [10]
O=C(c1ccncc1)C(Cl)Cl,inactive,15.6,21.3,91.7,34.4,8.9%,2.1,41.6,6.6,80.3,2.29,,,,,,,,,
O=C(c1ccc(OCCCCCBr)c([N+](=O)[O-])c1)C(Cl)Cl,Active,,69.7,99.7,39.7,Active,6.9,49.8,29.4,78.6,6.9,inactive,,,,,,,,
CCOc1ccc(C(=O)C(Cl)Cl)cc1[N+](=O)[O-],Active,57.3,99,98.2,88,Active,37.8,94.1,88,99.3,62.3,,,,,,,,,
COc1ccc(C(=O)C(Cl)Cl)cc1[N+](=O)[O-],Active,30,81.8,97.4,75.7,Active,17.7,89.4,46.7,97.2,22.3,,,,,,,,,
O=C(Nc1ccccc1)C(Cl)Cl,inactive,,20.3,30.2,15.5,inactive,,21.6,14.6,21.3,,inactive,inactive,inactive,,,,,,
CCCCOc1ccc(C(=O)C(Cl)Cl)cc1[N+](=O)[O-],Active,,95.2,98.9,28.8,Active,28.3,96.3,79.9,63.1,55.7,inactive,,,,,,,,
O=C(c1cccnc1)C(Cl)Cl,inactive,,,52,29.1,inactive,,9.3,,56.5,,inactive,inactive,inactive,inactive,inactive,,,,
CC(C)Oc1ccc(C(=O)CCl)cc1[N+](=O)[O-],Active,,38.9,85.6,24.8,Active,,27.7,14.8,51.4,,inactive,inactive,inactive,,,,,,
O=C(CCl)c1cccnc1,inactive,,,,,inactive,,,,,,inactive,inactive,inactive,inactive,inactive,inactive,inactive,inactive,inactive
CCCCCOc1ccc(C(=O)C(Cl)Cl)cc1[N+](=O)[O-],Active,,96.9,98.1,36.6,Active,32.3,93.2,80.2,68,62.9,inactive,,,,,,,,
CCCCCCOc1ccc(C(=O)C(Cl)Cl)cc1[N+](=O)[O-],Active,3.6,83.1,98.3,53.1,Active,1.2,51.7,33.4,99.7,5.7,,,,,,,,,
O=C(c1ccco1)C(Cl)Cl,inactive,21.4,79.8,94.5,48.9,2.5%,8.9,58.6,35.8,85.7,31.2,,,,,,,,,
O=C(c1ccccn1)C(Cl)Cl,inactive,14.8,31.5,98.5,39.6,10.2%,3.3,73.1,15.3,90.5,15.9,,,,,,,,,
O=C(c1cccnc1)C(Cl)(Cl)Cl,inactive,,,,,inactive,,,,,,inactive,inactive,inactive,inactive,inactive,inactive,inactive,inactive,inactive
O=C(c1cccs1)C(Cl)Cl,inactive,16.8,71.1,95.8,42.5,3.9%,6.9,62.1,34.7,73.4,26.8,,,,,,,,,
Cc1ccccc1NC(=O)C(Cl)Cl,inactive,,13.2,22.9,14.5,inactive,,19.5,9.9,15.4,,inactive,inactive,inactive,,,,,,
O=C(c1ccc(OCc2ccccc2)c([N+](=O)[O-])c1)C(Cl)Cl,Active,,99.3,99,29.9,Active,29.9,98.6,87.9,67.3,58.4,inactive,,,,,,,,
CCCOc1ccc(C(=O)C(Cl)Cl)cc1[N+](=O)[O-],Active,7.6,68.4,91.6,38,Active,,37.8,19.5,99.9,3.4,,inactive,,,,,,,
O=C(c1ccc(OCCCCBr)c([N+](=O)[O-])c1)C(Cl)Cl,Active,21.8,72.9,86.7,38.8,Active,5.7,54.7,33.4,66.7,15,,,,,,,,,
O=C(c1ccc(OCCBr)c([N+](=O)[O-])c1)C(Cl)Cl,Active,,63.7,80,,Active,9.5,53.2,24.5,23,15.2,inactive,,,,,,inactive,,
O=C(Oc1ccccc1)C(Cl)Cl,inactive,,,,,inactive,,,,,,inactive,inactive,inactive,inactive,inactive,inactive,inactive,inactive,inactive
O=C(c1ccc(OCCCBr)c([N+](=O)[O-])c1)C(Cl)Cl,Active,11.5,97.7,99,48.1,Active,26.8,94.5,84.3,74.6,60.8,,,,,,,,,
CC(C)Oc1ccc(C(=O)C(Cl)(Cl)Cl)cc1[N+](=O)[O-],Active,,15.9,35.6,,Active,,,,24.7,,inactive,inactive,inactive,,inactive,,inactive,inactive,
